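Where inhibition never reached the appropriate level, the endpoint shown equals the highest concentration tested. Otherwise, values were interpolated linearly from a five-concentration, 48-hour dose response in 96-well plates. TGI marks complete inhibition of growth.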
Tests used:
Assay in all cases: inhibition of tumour cell growth, NCI panel, 48 h
U251 CNS = test system: U251 CNS
HS 578T breast = test system: HS 578T breast
DLD-1 colon = test system: DLD-1 colon
SK-MEL-28 melanoma = test system: SK-MEL-28 melanoma
SK-OV-3 ovarian = test system: SK-OV-3 ovarian
ACHN renal = test system: ACHN renal
KM12 colon = test system: KM12 colon
SK-MEL-5 melanoma = test system: SK-MEL-5 melanoma
COLO 205 colon = test system: COLO 205 colon
MOLT-4 leukemia = test system: MOLT-4 leukemia
UO-31 renal = test system: UO-31 renal
MDA-MB-435 = test system: MDA-MB-435
A549 NSCLC = test system: A549 NSCLC
HL-60(TB) leukemia = test system: HL-60(TB) leukemia
IGROV1 ovarian = test system: IGROV1 ovarian
SK-MEL-2 melanoma = test system: SK-MEL-2 melanoma
HCT-15 colon = test system: HCT-15 colon
SN12C renal = test system: SN12C renal
NCI-H460 lung = test system: NCI-H460 lung
HOP-62 NSCLC = test system: HOP-62 NSCLC
HCC-2998 colon = test system: HCC-2998 colon
BT-549 breast = test system: BT-549 breast
NCI-H522 lung = test system: NCI-H522 lung
KM20L2 colon = test system: KM20L2 colon
HOP-92 NSCLC = test system: HOP-92 NSCLC
SF-295 CNS = test system: SF-295 CNS
CCRF-CEM leukemia = test system: CCRF-CEM leukemia
MDA-MB-231 breast = test system: MDA-MB-231 breast
HT29 colon = test system: HT29 colon
HOP-18 NSCLC = test system: HOP-18 NSCLC
SF-268 CNS = test system: SF-268 CNS
SNB-78 CNS = test system: SNB-78 CNS
SNB-19 CNS = test system: SNB-19 CNS
DU-145 prostate = test system: DU-145 prostate
HCT-116 colon = test system: HCT-116 colon
XF 498 CNS = test system: XF 498 CNS
SW-620 colon = test system: SW-620 colon
OVCAR-3 ovarian = test system: OVCAR-3 ovarian
RXF 393 renal = test system: RXF 393 renal
CAKI-1 renal = test system: CAKI-1 renal
T-47D breast = test system: T-47D breast
SNB-75 CNS = test system: SNB-75 CNS
MALME-3M melanoma = test system: MALME-3M melanoma
OVCAR-4 ovarian = test system: OVCAR-4 ovarian
OVCAR-8 ovarian = test system: OVCAR-8 ovarian
NCI-H23 lung = test system: NCI-H23 lung
NCI-H226 lung = test system: NCI-H226 lung
LOX IMVI melanoma = test system: LOX IMVI melanoma
UACC-257 melanoma = test system: UACC-257 melanoma
DMS 273 small cell lung = test system: DMS 273 small cell lung
786-0 renal = test system: 786-0 renal
DMS 114 small cell lung = test system: DMS 114 small cell lung
SF-539 CNS = test system: SF-539 CNS
TK-10 renal = test system: TK-10 renal
MCF7 breast = test system: MCF7 breast
RPMI-8226 leukemia = test system: RPMI-8226 leukemia
K-562 leukemia = test system: K-562 leukemia
PC-3 prostate = test system: PC-3 prostate
SR leukemia = test system: SR leukemia
UACC-62 melanoma = test system: UACC-62 melanoma
M14 melanoma = test system: M14 melanoma
EKVX NSCLC = test system: EKVX NSCLC
MDA-N = test system: MDA-N
OVCAR-5 ovarian = test system: OVCAR-5 ovarian
A498 renal = test system: A498 renal
LXFL 529 NSCLC = test system: LXFL 529 NSCLC
NCI/ADR-RES ovarian = test system: NCI/ADR-RES ovarian
M19-MEL melanoma = test system: M19-MEL melanoma

Clc1ccc(-c2c(C3=NCCCN3)nnn2-c2ccc(Cl)cc2)cc1
TGI (U251 CNS): > 75.8 µM
TGI (HS 578T breast): > 59.5 µM
TGI (DLD-1 colon): > 100 µM
TGI (SK-MEL-28 melanoma): 31.6 µM
TGI (SK-OV-3 ovarian): > 100 µM
TGI (ACHN renal): > 100 µM
TGI (KM12 colon): > 77.5 µM
TGI (SK-MEL-5 melanoma): 35.9 µM
TGI (COLO 205 colon): 32.8 µM
TGI (MOLT-4 leukemia): 60.9 µM
TGI (UO-31 renal): 90.4 µM
TGI (MDA-MB-435): 35.9 µM
TGI (A549 NSCLC): > 100 µM
TGI (HL-60(TB) leukemia): 48.1 µM
TGI (IGROV1 ovarian): > 100 µM
TGI (SK-MEL-2 melanoma): 34.6 µM
TGI (HCT-15 colon): > 100 µM
TGI (SN12C renal): > 100 µM
TGI (NCI-H460 lung): > 75.4 µM
TGI (HOP-62 NSCLC): > 82.6 µM
TGI (HCC-2998 colon): 38.3 µM
TGI (BT-549 breast): > 100 µM
TGI (NCI-H522 lung): 64.3 µM
TGI (KM20L2 colon): > 100 µM
TGI (HOP-92 NSCLC): 64.5 µM
TGI (SF-295 CNS): > 77.2 µM
TGI (CCRF-CEM leukemia): > 83.3 µM
TGI (MDA-MB-231 breast): > 77.7 µM
TGI (HT29 colon): 64.4 µM
TGI (HOP-18 NSCLC): > 100 µM
TGI (SF-268 CNS): > 83.2 µM
TGI (SNB-78 CNS): > 100 µM
TGI (SNB-19 CNS): > 85.3 µM
TGI (DU-145 prostate): > 100 µM
TGI (HCT-116 colon): > 75.6 µM
TGI (XF 498 CNS): 53.5 µM
TGI (SW-620 colon): > 76.5 µM
TGI (OVCAR-3 ovarian): > 100 µM
TGI (RXF 393 renal): 68.8 µM
TGI (CAKI-1 renal): > 94.1 µM
TGI (T-47D breast): > 59.8 µM
TGI (SNB-75 CNS): > 72.2 µM
TGI (MALME-3M melanoma): 33 µM
TGI (OVCAR-4 ovarian): > 100 µM
TGI (OVCAR-8 ovarian): > 88.2 µM
TGI (NCI-H23 lung): > 100 µM
TGI (NCI-H226 lung): > 100 µM
TGI (LOX IMVI melanoma): 53 µM
TGI (UACC-257 melanoma): 44.1 µM
TGI (DMS 273 small cell lung): > 100 µM
TGI (786-0 renal): > 77.1 µM
TGI (DMS 114 small cell lung): 49.5 µM
TGI (SF-539 CNS): 67.5 µM
TGI (TK-10 renal): > 77.5 µM
TGI (MCF7 breast): > 55.8 µM
TGI (RPMI-8226 leukemia): 62.4 µM
TGI (K-562 leukemia): 48.5 µM
TGI (PC-3 prostate): > 68.4 µM
TGI (SR leukemia): 40.7 µM
TGI (UACC-62 melanoma): 36 µM
TGI (M14 melanoma): 31.3 µM
TGI (EKVX NSCLC): > 100 µM
TGI (MDA-N): 39.3 µM
TGI (OVCAR-5 ovarian): > 89.8 µM
TGI (A498 renal): > 96.8 µM
TGI (LXFL 529 NSCLC): > 83.3 µM
TGI (NCI/ADR-RES ovarian): > 86.4 µM

C/C(=C1/CCC/C(=C(/C)c2ccccc2)C1=O)c1ccccc1
TGI (U251 CNS): 74.2 µM
TGI (DLD-1 colon): > 100 µM
TGI (SK-MEL-28 melanoma): > 100 µM
TGI (SK-OV-3 ovarian): > 100 µM
TGI (ACHN renal): > 100 µM
TGI (KM12 colon): > 100 µM
TGI (SK-MEL-5 melanoma): 47.8 µM
TGI (COLO 205 colon): > 100 µM
TGI (MOLT-4 leukemia): 64.3 µM
TGI (UO-31 renal): > 100 µM
TGI (A549 NSCLC): > 100 µM
TGI (HL-60(TB) leukemia): 27.9 µM
TGI (IGROV1 ovarian): > 100 µM
TGI (SK-MEL-2 melanoma): 38.7 µM
TGI (HCT-15 colon): > 100 µM
TGI (M19-MEL melanoma): 58.3 µM
TGI (SN12C renal): > 100 µM
TGI (NCI-H460 lung): > 100 µM
TGI (HCC-2998 colon): > 100 µM
TGI (NCI-H522 lung): > 100 µM
TGI (KM20L2 colon): > 100 µM
TGI (HOP-92 NSCLC): > 100 µM
TGI (SF-295 CNS): > 100 µM
TGI (CCRF-CEM leukemia): 49.8 µM
TGI (HT29 colon): 86.8 µM
TGI (HOP-18 NSCLC): > 100 µM
TGI (SF-268 CNS): > 100 µM
TGI (SNB-78 CNS): > 100 µM
TGI (SNB-19 CNS): > 100 µM
TGI (HCT-116 colon): 55.5 µM
TGI (XF 498 CNS): 82 µM
TGI (SW-620 colon): > 100 µM
TGI (OVCAR-3 ovarian): > 100 µM
TGI (RXF 393 renal): 47.6 µM
TGI (SNB-75 CNS): > 100 µM
TGI (MALME-3M melanoma): 46.7 µM
TGI (OVCAR-4 ovarian): > 100 µM
TGI (OVCAR-8 ovarian): > 100 µM
TGI (NCI-H23 lung): > 100 µM
TGI (NCI-H226 lung): 56.5 µM
TGI (LOX IMVI melanoma): > 100 µM
TGI (UACC-257 melanoma): 74.9 µM
TGI (DMS 273 small cell lung): > 100 µM
TGI (786-0 renal): > 100 µM
TGI (DMS 114 small cell lung): 70.3 µM
TGI (SF-539 CNS): > 100 µM
TGI (TK-10 renal): > 100 µM
TGI (RPMI-8226 leukemia): > 100 µM
TGI (K-562 leukemia): 47.1 µM
TGI (SR leukemia): 43.5 µM
TGI (UACC-62 melanoma): > 100 µM
TGI (M14 melanoma): > 100 µM
TGI (EKVX NSCLC): > 100 µM
TGI (OVCAR-5 ovarian): > 100 µM
TGI (LXFL 529 NSCLC): > 100 µM

Reference: PubChem BioAssay (NCI)
